Values of other authors, collected in US7041676B2, “Compounds, compositions, and methods” (Cytokinetics, Inc., priority 2002, dated 2006).

System: A549 cells
Conditions: data provided by National Cancer Institute, Developmental Therapeutic Program
In the case of O=c1[nH]cc(F)c(=O)[nH]1 [5-fluorouracil], the GI50 is listed as 1000 nM. In the case of COc1cccc2c1C(=O)c1c(O)c3c(c(O)c1C2=O)C[C@@](O)(C(=O)CO)C[C@@H]3O[C@H]1C[C@H](N)[C@H](O)[C@H](C)O1 [doxorubicin], the GI50 is given as 63 nM. For NC(=O)NO [hydroxyurea], the GI50 is given as 500000 nM. In the case of CC(=O)O[C@H]1C(=O)[C@@]2(C)[C@H]([C@H](OC(=O)c3ccccc3)[C@]3(O)C[C@H](OC(=O)[C@H](O)[C@@H](NC(=O)c4ccccc4)c4ccccc4)C(C)=C1C3(C)C)[C@]1(OC(C)=O)CO[C@@H]1C[C@@H]2O [paclitaxel], the GI50 is given as 4 nM.
